Laboratory results from ChEMBL document CHEMBL1201862, “PubChem BioAssay data set” (2004).
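Five compound concentrations were applied to cells in 96-well plates for 48 hours; endpoints were derived by simple linear interpolation of the resulting dose-response curve. GI50 is the concentration that inhibits growth by half.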 Active and inactive are the calls of the source. No stated cut-off is given here; in the data, active = GI50 up to about 1.1 µM and inactive = higher.

Experiments:
Assay in all cases: NCI-60 cell line screen, 48 h
K562 = test system: K562
SR = test system: SR
MOLT-4 = test system: MOLT-4
T47D = test system: T47D
OVCAR-5 = test system: OVCAR-5
OVCAR-4 = test system: OVCAR-4
CAKI-1 = test system: CAKI-1
OVCAR-3 = test system: OVCAR-3
DU-145 = test system: DU-145
SK-MEL-28 = test system: SK-MEL-28
Hs-578T = test system: Hs-578T
NCI/ADR-RES = test system: NCI/ADR-RES
SK-OV-3 = test system: SK-OV-3
HT-29 = test system: HT-29
CCRF-CEM = test system: CCRF-CEM
UACC-257 = test system: UACC-257
UACC-62 = test system: UACC-62
RXF 393 = test system: RXF 393
SNB-75 = test system: SNB-75
SN12C = test system: SN12C
ACHN = test system: ACHN
NCI-H460 = test system: NCI-H460
HCT-15 = test system: HCT-15
EKVX = test system: EKVX
SF-539 = test system: SF-539
LOX IMVI = test system: LOX IMVI
SF-295 = test system: SF-295
KM12 = test system: KM12
TK-10 = test system: TK-10
MCF7 = test system: MCF7
RPMI-8226 = test system: RPMI-8226
HCC 2998 = test system: HCC 2998
MDA-MB-435 = test system: MDA-MB-435
HL-60 = test system: HL-60
786-0 = test system: 786-0
MDA-N = test system: MDA-N
U-251 = test system: U-251
BT-549 = test system: BT-549
A498 = test system: A498
SW-620 = test system: SW-620
NCI-H226 = test system: NCI-H226
HOP-62 = test system: HOP-62
PC-3 = test system: PC-3
M14 = test system: M14
COLO 205 = test system: COLO 205
UO-31 = test system: UO-31
SF-268 = test system: SF-268
A549 = test system: A549
NCI-H23 = test system: NCI-H23
SNB-19 = test system: SNB-19
HCT-116 = test system: HCT-116
HOP-92 = test system: HOP-92
MDA-MB-231 = test system: MDA-MB-231
IGROV-1 = test system: IGROV-1
SK-MEL-2 = test system: SK-MEL-2
SK-MEL-5 = test system: SK-MEL-5
OVCAR-8 = test system: OVCAR-8
Malme-3M = test system: Malme-3M
NCI-H522 = test system: NCI-H522

For `N=C(N)NCCCC(NC(=O)OCCCCCCn1ccc(N)nc1=O)C(=O)O` (stereo unspecified), the GI50 (K562) was > 100 µM (inactive), the GI50 (SR) was > 100 µM (inactive) and the GI50 (MOLT-4) was > 100 µM (inactive). The GI50 (T47D) was > 100 µM (inactive), the GI50 (OVCAR-5) was > 100 µM (inactive) and the GI50 (OVCAR-4) was > 100 µM (inactive). For the same molecule, the GI50 (CAKI-1) was > 100 µM (inactive), the GI50 (OVCAR-3) was > 100 µM (inactive) and the GI50 (DU-145) was > 100 µM (inactive). The GI50 (SK-MEL-28) was > 100 µM (inactive), the GI50 (Hs-578T) was > 100 µM (inactive) and the GI50 (NCI/ADR-RES) was 4.75 µM (inactive). The GI50 (SK-OV-3) was > 100 µM (inactive), the GI50 (HT-29) was > 100 µM (inactive) and the GI50 (CCRF-CEM) was > 100 µM (inactive). The GI50 (UACC-257) was > 100 µM (inactive), the GI50 (UACC-62) was > 100 µM (inactive) and the GI50 (RXF 393) was > 100 µM (inactive). The GI50 (SNB-75) was > 100 µM (inactive), the GI50 (SN12C) was > 100 µM (inactive) and the GI50 (ACHN) was > 100 µM (inactive). For the same molecule, the GI50 (NCI-H460) was > 100 µM (inactive), the GI50 (HCT-15) was > 100 µM and the GI50 (EKVX) was > 100 µM (inactive). The GI50 (SF-539) was > 100 µM (inactive), the GI50 (LOX IMVI) was > 100 µM (inactive) and the GI50 (SF-295) was > 100 µM (inactive). The GI50 (KM12) was > 100 µM (inactive), the GI50 (TK-10) was > 100 µM (inactive) and the GI50 (MCF7) was > 100 µM (inactive). The GI50 (RPMI-8226) was > 100 µM (inactive), the GI50 (HCC 2998) was > 100 µM (inactive) and the GI50 (MDA-MB-435) was > 100 µM (inactive). For the same molecule, the GI50 (HL-60) was > 100 µM (inactive), the GI50 (786-0) was > 100 µM (inactive) and the GI50 (MDA-N) was > 100 µM (inactive). For the same molecule, the GI50 (U-251) was > 100 µM (inactive), the GI50 (BT-549) was > 100 µM (inactive) and the GI50 (A498) was > 100 µM (inactive). The GI50 (SW-620) was > 100 µM (inactive), the GI50 (NCI-H226) was 0.418 µM (active) and the GI50 (HOP-62) was > 100 µM (inactive). The GI50 (PC-3) was > 100 µM (inactive), the GI50 (M14) was > 100 µM (inactive) and the GI50 (COLO 205) was > 100 µM (inactive). The GI50 (UO-31) was > 100 µM (inactive), the GI50 (SF-268) was > 100 µM (inactive) and the GI50 (A549) was > 100 µM (inactive). For the same molecule, the GI50 (NCI-H23) was > 100 µM (inactive), the GI50 (SNB-19) was > 100 µM (inactive) and the GI50 (HCT-116) was > 100 µM (inactive). The GI50 (HOP-92) was > 100 µM (inactive), the GI50 (MDA-MB-231) was > 100 µM (inactive) and the GI50 (IGROV-1) was > 100 µM (inactive). The GI50 (SK-MEL-2) was > 100 µM (inactive).
`CCCCCCCCCCCC[C@@H](O)[C@H]1CC[C@H]([C@H]2CC[C@H]([C@H](O)CC[C@H](O)CCCCCCCC3=C[C@H](C)OC3=O)O2)O1` was tested, and the GI50 (K562) was 1.05 µM (active), the GI50 (SR) was 2.03 µM (inactive) and the GI50 (MOLT-4) was 1.84 µM (inactive). The GI50 (T47D) was 3.4 µM (inactive), the GI50 (SK-MEL-5) was 1.38 µM (inactive) and the GI50 (OVCAR-5) was 1.69 µM (inactive). For the same molecule, the GI50 (CAKI-1) was 2.67 µM (inactive), the GI50 (OVCAR-3) was 1.58 µM (inactive) and the GI50 (DU-145) was 3.38 µM (inactive). The GI50 (SK-MEL-28) was 1.63 µM (inactive), the GI50 (Hs-578T) was 2.18 µM (inactive) and the GI50 (NCI/ADR-RES) was 1.29 µM (inactive). The GI50 (HT-29) was 1.76 µM (inactive), the GI50 (CCRF-CEM) was 1.09 µM (active) and the GI50 (UACC-257) was 0.136 µM (active). For the same molecule, the GI50 (UACC-62) was 1.02 µM (active), the GI50 (RXF 393) was 2.12 µM (inactive) and the GI50 (SNB-75) was 1.75 µM (inactive). For the same molecule, the GI50 (SN12C) was 3.22 µM (inactive), the GI50 (ACHN) was 0.0933 µM (active) and the GI50 (NCI-H460) was 1.08 µM (active). For the same molecule, the GI50 (HCT-15) was 2.03 µM, the GI50 (EKVX) was 1.1 µM (active) and the GI50 (SF-539) was 1.68 µM (inactive). The GI50 (LOX IMVI) was 1.17 µM (inactive), the GI50 (SF-295) was 1.26 µM (inactive) and the GI50 (KM12) was 1.44 µM (inactive). For the same molecule, the GI50 (TK-10) was 1.21 µM (inactive), the GI50 (MCF7) was 1.15 µM (inactive) and the GI50 (RPMI-8226) was 1.2 µM (inactive). For the same molecule, the GI50 (MDA-MB-435) was 1.77 µM (inactive), the GI50 (HL-60) was 1.26 µM (inactive) and the GI50 (786-0) was 2.4 µM (inactive). For the same molecule, the GI50 (MDA-N) was 1.9 µM (inactive), the GI50 (U-251) was 2.13 µM (inactive) and the GI50 (BT-549) was 0.00352 µM (active). For the same molecule, the GI50 (A498) was 2.52 µM (inactive), the GI50 (SW-620) was 1.94 µM (inactive) and the GI50 (OVCAR-8) was 1.82 µM (inactive). The GI50 (NCI-H226) was 1.67 µM (inactive), the GI50 (HOP-62) was 1.57 µM (inactive) and the GI50 (PC-3) was 1.55 µM (inactive). The GI50 (M14) was 1.64 µM (inactive), the GI50 (COLO 205) was 1.86 µM (inactive) and the GI50 (UO-31) was 0.562 µM (active). The GI50 (SF-268) was 1.55 µM (inactive), the GI50 (A549) was 1.35 µM (inactive) and the GI50 (NCI-H23) was 0.0201 µM (active). The GI50 (SNB-19) was 1.23 µM (inactive), the GI50 (HCT-116) was 1.23 µM (inactive) and the GI50 (HOP-92) was 2.16 µM (inactive). For the same molecule, the GI50 (MDA-MB-231) was 2.62 µM (inactive), the GI50 (IGROV-1) was 1.65 µM (inactive) and the GI50 (SK-MEL-2) was 1.52 µM (inactive).
`CCOC(=O)C(C)c1nc2cc(F)c(N3CCOCC3)cc2[nH]c1=O` (stereo unspecified) was tested, and the GI50 (K562) was > 100 µM (inactive), the GI50 (SR) was > 100 µM (inactive) and the GI50 (MOLT-4) was 85.9 µM (inactive). The GI50 (T47D) was 51.9 µM (inactive), the GI50 (SK-MEL-5) was 54.1 µM (inactive) and the GI50 (OVCAR-5) was > 100 µM (inactive). For the same molecule, the GI50 (OVCAR-4) was > 100 µM (inactive), the GI50 (CAKI-1) was > 100 µM (inactive) and the GI50 (OVCAR-3) was > 100 µM (inactive). The GI50 (DU-145) was > 100 µM (inactive), the GI50 (SK-MEL-28) was > 100 µM (inactive) and the GI50 (Hs-578T) was > 100 µM (inactive). For the same molecule, the GI50 (NCI/ADR-RES) was > 100 µM (inactive), the GI50 (SK-OV-3) was > 100 µM (inactive) and the GI50 (HT-29) was > 100 µM (inactive). For the same molecule, the GI50 (CCRF-CEM) was > 100 µM (inactive), the GI50 (UACC-257) was > 100 µM (inactive) and the GI50 (UACC-62) was > 100 µM (inactive). The GI50 (RXF 393) was > 100 µM (inactive), the GI50 (Malme-3M) was > 100 µM (inactive) and the GI50 (SNB-75) was > 100 µM (inactive). The GI50 (SN12C) was > 100 µM (inactive), the GI50 (ACHN) was > 100 µM (inactive) and the GI50 (NCI-H460) was 39.1 µM (inactive). For the same molecule, the GI50 (HCT-15) was > 100 µM, the GI50 (EKVX) was > 100 µM (inactive) and the GI50 (SF-539) was > 100 µM (inactive). The GI50 (NCI-H522) was > 100 µM (inactive), the GI50 (SF-295) was > 100 µM (inactive) and the GI50 (KM12) was > 100 µM (inactive). For the same molecule, the GI50 (TK-10) was > 100 µM (inactive), the GI50 (MCF7) was > 100 µM (inactive) and the GI50 (RPMI-8226) was 83.6 µM (inactive). For the same molecule, the GI50 (HCC 2998) was > 100 µM (inactive), the GI50 (MDA-MB-435) was > 100 µM (inactive) and the GI50 (786-0) was > 100 µM (inactive). For the same molecule, the GI50 (MDA-N) was > 100 µM (inactive), the GI50 (U-251) was > 100 µM (inactive) and the GI50 (BT-549) was > 100 µM (inactive). The GI50 (A498) was > 100 µM (inactive), the GI50 (SW-620) was > 100 µM (inactive) and the GI50 (OVCAR-8) was > 100 µM (inactive). The GI50 (NCI-H226) was > 100 µM (inactive), the GI50 (HOP-62) was > 100 µM (inactive) and the GI50 (PC-3) was 71.9 µM (inactive). For the same molecule, the GI50 (M14) was > 100 µM (inactive), the GI50 (COLO 205) was > 100 µM (inactive) and the GI50 (UO-31) was > 100 µM (inactive). The GI50 (SF-268) was > 100 µM (inactive), the GI50 (A549) was > 100 µM (inactive) and the GI50 (NCI-H23) was > 100 µM (inactive). The GI50 (SNB-19) was > 100 µM (inactive), the GI50 (HCT-116) was > 100 µM (inactive) and the GI50 (HOP-92) was > 100 µM (inactive). For the same molecule, the GI50 (MDA-MB-231) was > 100 µM (inactive), the GI50 (IGROV-1) was > 100 µM (inactive) and the GI50 (SK-MEL-2) was > 100 µM (inactive).
